Tests used:
Assay type in all cases: cell-based
α4β7 integrin [1] = target: T1, α4β7 integrin (Homo sapiens (Human), UniProt P13612+P26010); experiment: MAdCAM-1/α4β7 integrin binding inhibitory activity evaluation test in the presence of serum (1); settings: RPMI-8866 cells binding to mouse MAdCAM-1/Fc, human serum at final concentration of 50%; read-out: α4β7 with serum added, IC50
Summary of the method: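 Plates were coated with recombinant mouse MAdCAM-1/Fc (1 μg/mL, pH 9.6). Human RPMI-8866 B cells (α4β7-expressing) bound for 15–60 min at 30 °C in DMEM/HEPES/BSA with 4 mM MnCl2 and 50% human serum, with test substance present. Bound cells were quantified by LDH absorbance at 490 nm, run in duplicate, and IC50 was calculated relative to no-compound wells.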

α4β7 integrin [2] = target: T1, α4β7 integrin; experiment: MAdCAM-1/α4β7 integrin binding inhibitory activity evaluation test (RPMI-8866 cell adhesion to MAdCAM-1/Fc); settings: for Selectivity: IC50 in VCAM-1/α4β1 test divided by IC50 in MAdCAM-1/α4β7 test; for IC50: RPMI-8866 cells binding to recombinant mouse MAdCAM-1/Fc, no serum
Summary of the method: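 Human RPMI-8866 cells (α4β7+) adhered for 15–60 min at 30 °C to plates coated with recombinant mouse MAdCAM-1/Fc, in DMEM binding buffer with 4 mM MnCl2 and test compound. Bound cells were quantified via LDH activity (A490) after lysis. IC50 is the 50% inhibition of binding relative to compound-free wells.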

α4β1 integrin = α4β1 integrin (Homo sapiens (Human), UniProt P05556+P13612); experiment: VCAM-1/α4β1 integrin binding inhibitory activity evaluation test (Jurkat cell adhesion to VCAM-1/Fc); settings: Jurkat cells binding to recombinant human VCAM-1/Fc
Sequence of α4β1 integrin (P13612 34-1032): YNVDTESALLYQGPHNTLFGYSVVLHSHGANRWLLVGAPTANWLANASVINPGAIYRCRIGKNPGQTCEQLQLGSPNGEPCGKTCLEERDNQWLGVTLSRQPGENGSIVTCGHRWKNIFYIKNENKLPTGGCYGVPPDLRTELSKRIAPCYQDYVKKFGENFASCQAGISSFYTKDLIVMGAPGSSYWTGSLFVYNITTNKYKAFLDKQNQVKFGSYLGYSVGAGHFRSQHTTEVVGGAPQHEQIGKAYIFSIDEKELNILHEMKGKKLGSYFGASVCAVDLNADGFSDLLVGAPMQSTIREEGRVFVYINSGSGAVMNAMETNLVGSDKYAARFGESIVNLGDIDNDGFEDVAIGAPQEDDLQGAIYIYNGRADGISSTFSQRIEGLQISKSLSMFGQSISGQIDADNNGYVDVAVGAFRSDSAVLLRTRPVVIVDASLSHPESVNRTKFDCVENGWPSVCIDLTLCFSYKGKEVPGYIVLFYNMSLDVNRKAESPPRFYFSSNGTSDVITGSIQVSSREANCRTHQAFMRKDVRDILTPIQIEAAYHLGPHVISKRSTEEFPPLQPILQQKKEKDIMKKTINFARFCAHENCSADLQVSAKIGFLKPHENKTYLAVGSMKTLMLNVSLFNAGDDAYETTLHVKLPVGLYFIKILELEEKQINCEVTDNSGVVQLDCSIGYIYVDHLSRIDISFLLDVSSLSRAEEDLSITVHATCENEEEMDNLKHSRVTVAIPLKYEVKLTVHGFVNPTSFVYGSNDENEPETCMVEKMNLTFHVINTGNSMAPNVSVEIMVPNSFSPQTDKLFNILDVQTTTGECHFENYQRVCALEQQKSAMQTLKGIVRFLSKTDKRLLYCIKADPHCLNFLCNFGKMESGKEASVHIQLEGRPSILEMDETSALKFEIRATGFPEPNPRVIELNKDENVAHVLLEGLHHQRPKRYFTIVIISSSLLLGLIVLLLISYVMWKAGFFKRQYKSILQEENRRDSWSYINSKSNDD
Sequence of α4β1 integrin (P05556 21-798): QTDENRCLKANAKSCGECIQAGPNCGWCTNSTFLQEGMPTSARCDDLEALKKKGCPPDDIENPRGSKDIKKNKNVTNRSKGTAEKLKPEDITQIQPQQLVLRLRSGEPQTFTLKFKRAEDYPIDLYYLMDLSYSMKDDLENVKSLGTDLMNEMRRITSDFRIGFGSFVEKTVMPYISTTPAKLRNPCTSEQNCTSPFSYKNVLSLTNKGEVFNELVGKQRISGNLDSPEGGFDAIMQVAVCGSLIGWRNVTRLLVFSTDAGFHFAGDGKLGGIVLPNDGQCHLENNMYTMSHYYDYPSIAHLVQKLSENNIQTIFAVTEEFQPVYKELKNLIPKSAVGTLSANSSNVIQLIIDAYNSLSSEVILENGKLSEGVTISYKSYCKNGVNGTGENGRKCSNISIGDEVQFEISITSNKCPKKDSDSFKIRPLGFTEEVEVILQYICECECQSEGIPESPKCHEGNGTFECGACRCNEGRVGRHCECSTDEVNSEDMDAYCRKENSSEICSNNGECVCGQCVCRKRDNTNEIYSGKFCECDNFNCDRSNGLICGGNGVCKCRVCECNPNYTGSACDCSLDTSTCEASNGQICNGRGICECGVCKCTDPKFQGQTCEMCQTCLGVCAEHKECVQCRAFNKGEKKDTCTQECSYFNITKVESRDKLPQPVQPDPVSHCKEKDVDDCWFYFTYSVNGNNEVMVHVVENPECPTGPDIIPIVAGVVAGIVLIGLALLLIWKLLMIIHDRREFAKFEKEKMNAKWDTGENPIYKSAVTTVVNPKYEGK
Summary of the method: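 Jurkat cells (5×10^5/well) added with compounds to plates coated with recombinant human VCAM-1/Fc (1 μg/mL coating), in DMEM binding buffer with 40 mM HEPES, 0.2% BSA and 4 mM MnCl2, 15-60 min at 30° C. Bound cells lysed and quantified by LDH absorbance at 490 nm; IC50 relative to compound-free wells, in duplicate.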

T1 sequence (P13612 34-1032): as the sequence (P13612 34-1032) above
T1 sequence (P26010 20-798): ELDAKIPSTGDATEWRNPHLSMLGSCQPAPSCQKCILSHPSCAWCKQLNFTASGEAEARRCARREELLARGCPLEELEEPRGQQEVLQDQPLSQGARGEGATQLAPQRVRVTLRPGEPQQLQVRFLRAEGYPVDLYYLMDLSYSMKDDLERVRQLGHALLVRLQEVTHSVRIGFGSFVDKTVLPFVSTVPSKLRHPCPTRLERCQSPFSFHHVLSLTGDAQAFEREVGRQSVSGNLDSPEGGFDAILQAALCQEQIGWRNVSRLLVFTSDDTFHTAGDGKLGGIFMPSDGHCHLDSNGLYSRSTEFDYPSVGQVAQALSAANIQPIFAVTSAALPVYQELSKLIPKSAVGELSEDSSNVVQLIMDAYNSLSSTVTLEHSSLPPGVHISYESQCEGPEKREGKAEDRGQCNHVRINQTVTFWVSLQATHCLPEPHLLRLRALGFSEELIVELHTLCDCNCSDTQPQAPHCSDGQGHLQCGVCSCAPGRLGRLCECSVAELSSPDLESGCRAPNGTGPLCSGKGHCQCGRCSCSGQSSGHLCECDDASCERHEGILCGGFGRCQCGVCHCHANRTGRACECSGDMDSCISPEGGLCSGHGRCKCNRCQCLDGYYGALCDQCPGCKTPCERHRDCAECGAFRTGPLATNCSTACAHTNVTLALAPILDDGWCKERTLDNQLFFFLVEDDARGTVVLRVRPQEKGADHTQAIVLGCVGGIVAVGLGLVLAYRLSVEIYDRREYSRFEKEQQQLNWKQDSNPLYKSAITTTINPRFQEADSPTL

SMILES | IC50 (α4β7 integrin [1]) [nM] | Selectivity (α4β7 integrin [2]) | IC50 (α4β7 integrin [2]) [nM] | IC50 (α4β1 integrin) [nM]
COc1ccc2c(c1)c(=O)n(-c1ccc(C[C@H](NC(=O)c3c(F)cc(NS(=O)(=O)c4ccc(-n5ccnn5)cc4)cc3F)C(=O)O)cc1)c(=O)n2C [Example 51, N-[2,6-Difluoro-4-({[4-(1H-1,2,3-triazol-1-yl)phenyl]sulfonyl}amino)benzoyl]-4-(6-methoxy-1-methyl-2,4-dioxo-1,4-dihydroquinazolin-3(2H)-yl)-L-phenylalanine] | 21 | 220 | 6.9 | 1500
Cn1ccc(=O)n(-c2ccc(C[C@H](NC(=O)c3c(F)cc(NS(=O)(=O)c4ccc(-n5cccc5)cc4)cc3F)C(=O)O)cc2)c1=O [Example 64, N-[2,6-Difluoro-4-({[4-(1H-pyrrol-1-yl)phenyl]sulfonyl}amino)benzoyl]-4-(3-methyl-2,6-dioxo-3,6-dihydropyrimidin-1(2H)-yl)-L-phenylalanine] | 22 | 750 | 2 | 1500
Cn1c(=O)n(-c2ccc(C[C@H](NC(=O)c3c(F)cc(NS(=O)(=O)c4ccc(-c5ccsc5)cc4)cc3F)C(=O)O)cc2)c(=O)c2ccncc21 [Example 53, N-[2,6-Difluoro-4-({[4-(3-thienyl)phenyl]sulfonyl}amino)benzoyl]-4-(1-methyl-2,4-dioxo-1,4-dihydropyrido[3,4-d]pyrimidin-3(2H)-yl)-L-phenylalanine] | 24 | 260 | 2.8 | 740
Cn1cnc2c1c(=O)n(-c1ccc(C[C@H](NC(=O)c3c(F)cc(NS(=O)(=O)c4ccc(-n5cccc5)cc4)cc3F)C(=O)O)cc1)c(=O)n2C [Example 76, N-[2,6-Difluoro-4-({[4-(1H-pyrrol-1-yl)phenyl]sulfonyl}amino)benzoyl]-4-(3,7-dimethyl-2,6-dioxo-2,3,6,7-tetrahydro-1H-purin-1-yl)-L-phenylalanine] | 22 | 410 | 2.2 | 910

Stronger by IC50 (α4β7 integrin [1]), values ahead:

IC50 (α4β7 integrin [1]) [nM] | Selectivity (α4β7 integrin [2]) | IC50 (α4β7 integrin [2]) [nM] | IC50 (α4β1 integrin) [nM] | SMILES
12 | 240 | 0.9 | 220 | Cn1c(=O)n(-c2ccc(C[C@H](NC(=O)c3c(F)cc(NS(=O)(=O)c4ccc(-n5cccc5)cc4)cc3F)C(=O)O)cc2)c(=O)c2ccncc21 [Example 43, N-[2,6-Difluoro-4-({[4-(1H-pyrrol-1-yl)phenyl]sulfonyl}amino)benzoyl]-4-(1-methyl-2,4-dioxo-1,4-dihydropyrido[3,4-d]pyrimidin-3(2H)-yl)-L-phenylalanine]
16 | 260 | 0.62 | 160 | CCNC(=O)c1ccc(S(=O)(=O)Nc2cc(F)c(C(=O)N[C@@H](Cc3ccc(-n4c(=O)ccn(C)c4=O)cc3)C(=O)O)c(F)c2)cc1 [Example 44, N-{4-[({4-[(Ethylamino)carbonyl]phenyl}sulfonyl)amino]-2,6-difluorobenzoyl}-4-(3-methyl-2,6-dioxo-3,6-dihydropyrimidin-1(2H)-yl)-L-phenylalanine]
1.6 | 230 | 0.077 | 18 | Cn1c(=O)n(-c2ccc(C[C@H](NC(=O)c3c(F)cc(NS(=O)(=O)c4ccc(-c5cncnc5)cn4)cc3F)C(=O)O)cc2)c(=O)c2ccncc21 [Example 54, N-(2,6-Difluoro-4-{[(5-pyrimidin-5-yl-pyridin-2-yl)sulfonyl]amino}benzoyl)-4-(1-methyl-2,4-dioxo-1,4-dihydropyrido[3,4-d]pyrimidin-3(2H)-yl)-L-phenylalanine]
5.5 | 1100 | 1.1 | 1200 | Cn1ccc(=O)n(-c2ccc(C[C@H](NC(=O)c3c(F)cc(NS(=O)(=O)c4ccc(-c5cncnc5)cc4)cc3F)C(=O)O)cc2)c1=O [Example 60, N-(2,6-Difluoro-4-{[(4-pyrimidin-5-yl-phenyl)sulfonyl]amino}benzoyl)-4-(3-methyl-2,6-dioxo-3,6-dihydropyrimidin-1 (2H)-yl)-L-phenylalanine]
9.8 | 920 | 0.13 | 120 | Cn1c(=O)n(-c2ccc(C[C@H](NC(=O)c3c(F)cc(NS(=O)(=O)c4ccc(-c5ccnc(F)c5)cc4)cc3F)C(=O)O)cc2)c(=O)c2ccncc21 [Example 68, N-[2,6-Difluoro-4-({[4-(2-fluoropyridin-4-yl)phenyl]sulfonyl}amino)benzoyl]-4-(1-methyl-2,4-dioxo-1,4-dihydropyrido[3,4-d]pyrimidin-3(2H)-yl)-L-phenylalanine]
14 | 230 | 0.24 | 54 | Cn1c(=O)n(-c2ccc(C[C@H](NC(=O)c3c(F)cc(NS(=O)(=O)c4ccc(-c5ncc[nH]5)cc4)cc3F)C(=O)O)cc2)c(=O)c2ccncc21 [Example 48, N-[2,6-Difluoro-4-({[4-(1H-imidazol-2-yl)phenyl]sulfonyl}amino)benzoyl]-4-(1-methyl-2,4-dioxo-1,4-dihydropyrido[3,4-d]pyrimidin-3(2H)-yl)-L-phenylalanine]

From patent US9533985B2, “Sulfonamide derivative and medicinal use thereof” (EA Pharma Co., Ltd., priority 2012, dated 2017)
